Measurements: patent US12637468B2, “Substituted [1,2,4]triazolo[4,3-b]pyridazines as GABAA receptor modulators” (SHANGHAI SIMR BIOTECHNOLOGY CO., LTD., priority 2019, dated 2026)

molecular target: T1, α5-GABAA receptor (Homo sapiens, UniProt P18507+P31644); assay: Cell-level screening: whole cell patch clamp, inverse agonist efficacy on α5-GABAA receptor expressed in HEK293; type: cell-based; conditions: drug 100 nM, GABA 0.05 μM, HEK293 expressing α5, β3 and γ2 subunits, clamped at −60 mV; read-out: Compound inverse agonist efficacy %
T1 construct: expressed in transfected cells; host or cells: HEK293, monoclonal stably transfected line
Experimental: The inventors used electrophysiological methods to determine the inverse agonist efficacy of the drugs to be tested on the α5-GABAA receptor. The detailed methods are as follows:
Different subunits of GABAA receptors were expressed in human […] cell line 293 (HEK293) cell line. The cells were cultured in a culture medium and used as a cell model for screening pain inhibiting drugs. The α, β and γ subunits are necessary to form complete functional GABAA receptors. In this embodiment, the inventors had established the following cell model: α5 subunit (see GenBank Accession No. NM_000810.3 for protein sequences), β3 subunit (see GenBank Accession No. NM_000814.5 for protein sequences) and γ2 subunit (see GenBank Accession No. NM_000816.3 for protein sequences) were expressed in HEK293 cell line at the same time, followed by screening the monoclonal cell line. This cell line contained α5-GABAA receptor and had complete GABAA receptor function.
The monoclonal stably transfected HEK-293 cells expressing α5-GABAA receptor were cultured in 10 cm culture dishes and passaged when the cells grew to 80%-90%. During passaging, the culture medium was aspirated first, then 3 mL of DPBS phosphate buffer salt (Gibco™) was added to the culture dishes, and the culture dishes were shaken slightly, and DPBS was aspirated. 1 mL of trypsin (TrypLE Express, Gibco™) was added thereto, and the cells were digested at 37° C. for 1-2 minutes. Then 3 mL of complete medium (DMEM+10% FBS (Gibco™)) was added and the cells at the bottom of the culture dishes were dispersed. The cell suspension were transferred to a 15 mL centrifugal tube (Corning) and then centrifuged at 200 g for 3 minutes. The supernatant was discarded, 4 mL of complete medium was added, and the cells were gently blown and resuspended for use. If cell passaging was performed, the cell suspension was diluted at a ratio of 1:5 or 1:10. If cells for electrophysiology use were prepared, the cell suspension was diluted in a ratio of 1:12, then added into a 24-well dish (Corning™) in which glass slides were placed and pretreated with Poly-D-Lysine, and the cells were tested after being attached to the walls. The culture time of cells for electrophysiology use was no more than 48 hours.
Drug concentration setting: the final drug concentration used in drug screening was 100 nM, and the GABA concentration range was 0.05 μM. The final drug concentrations used in the dose-inversal agonistic efficiency (%) test were 0.3 nM, 3 nM, 10 nM, 30 nM, 100 nM and 300 nM. The whole cell patch clamp technique was used in electrophysiological experiments, which could refer to the literature (I. Lecker, Y. Yin, D. S. Wang and B. A. Orser, (2013) Potentiation of GABAA receptor activity by volatile anaesthetics is reduced by α5-GABAA receptor-preferring inverse agonists, British Journal of Anaesthesia 110 (S1): i73-i81). The components of extracellular solution (ECS) for electrophysiology use were as follows: 150 mM NaCl, 5 mM KCl, 2.5 mM CaCl2), 1 mM MgCl2, 10 mM HEPES and 10 mM glucose (pH 7.4); electrode internal solutions for electrophysiology use were as follows: 140 mM CsCl, 11 mM EGTA, 10 mM HEPES, 2 mM CaCl2), 1 mM MgCl2, 4 mM MgATP, 2 mM TEA (pH 7.3). The signal acquisition used an EPC-10 amplifier and the PatchMaster software (HEKA). The recording electrode was drawn using borosilicate glass, and the electrode resistance was 4 to 6 MΩ. The ALA-VC3-8PP™ system was used for extracellular administration. Separate cells that grew independently was selected for recording. During recording, the cell membrane potential was clamped at −60 mV. During experiment, an extracellular solution was applied to the cells for about 20 seconds. When the baseline reached to a stable state, the extracellular solution was switched to GABA. Then the current induced by GABA could be detected. […]

T1 sequence (P31644 32-462): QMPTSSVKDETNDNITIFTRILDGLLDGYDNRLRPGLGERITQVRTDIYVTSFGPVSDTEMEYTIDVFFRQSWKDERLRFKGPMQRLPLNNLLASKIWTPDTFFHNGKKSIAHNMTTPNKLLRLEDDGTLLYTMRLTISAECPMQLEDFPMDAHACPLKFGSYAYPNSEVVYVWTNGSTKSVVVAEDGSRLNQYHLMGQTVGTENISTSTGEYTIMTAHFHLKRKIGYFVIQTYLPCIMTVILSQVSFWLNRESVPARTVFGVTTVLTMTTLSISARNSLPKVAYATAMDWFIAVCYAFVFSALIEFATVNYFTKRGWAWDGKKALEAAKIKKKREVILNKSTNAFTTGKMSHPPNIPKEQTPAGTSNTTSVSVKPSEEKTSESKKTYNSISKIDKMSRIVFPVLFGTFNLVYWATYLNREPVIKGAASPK
T1 sequence (P28472 26-473 partner): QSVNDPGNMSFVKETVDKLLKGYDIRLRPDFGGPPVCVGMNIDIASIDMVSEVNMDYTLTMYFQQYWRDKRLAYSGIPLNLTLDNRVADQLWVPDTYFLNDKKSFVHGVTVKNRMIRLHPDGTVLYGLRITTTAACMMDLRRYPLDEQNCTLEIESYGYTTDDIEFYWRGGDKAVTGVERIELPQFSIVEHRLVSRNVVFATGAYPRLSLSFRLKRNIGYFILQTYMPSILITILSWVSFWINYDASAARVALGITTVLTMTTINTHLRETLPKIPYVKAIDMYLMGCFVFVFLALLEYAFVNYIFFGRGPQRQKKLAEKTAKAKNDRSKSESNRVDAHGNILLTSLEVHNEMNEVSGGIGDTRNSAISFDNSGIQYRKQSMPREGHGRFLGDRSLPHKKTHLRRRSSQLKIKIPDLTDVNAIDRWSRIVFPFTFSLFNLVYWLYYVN
T1 sequence (P18507 40-467 isoform P18507-1 limits assumed): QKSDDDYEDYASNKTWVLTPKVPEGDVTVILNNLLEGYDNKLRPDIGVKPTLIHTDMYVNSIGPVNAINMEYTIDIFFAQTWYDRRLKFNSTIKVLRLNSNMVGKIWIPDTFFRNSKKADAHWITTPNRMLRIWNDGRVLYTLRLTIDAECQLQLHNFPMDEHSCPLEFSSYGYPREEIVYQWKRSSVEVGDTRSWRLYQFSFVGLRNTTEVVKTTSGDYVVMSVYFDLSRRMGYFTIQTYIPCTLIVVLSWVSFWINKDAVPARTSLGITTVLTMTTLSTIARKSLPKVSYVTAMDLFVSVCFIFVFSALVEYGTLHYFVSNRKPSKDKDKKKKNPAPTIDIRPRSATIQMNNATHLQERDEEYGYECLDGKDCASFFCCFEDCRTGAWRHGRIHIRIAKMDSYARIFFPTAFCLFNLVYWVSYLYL

inhibition at 0.1 µM	SMILES
38.5%	COc1cc2nnc(-c3cc(C)on3)n2nc1OCc1ccc(F)cn1 [Embodiment 58]
42.9%	COc1cc2nnc(-c3cc(C)on3)n2nc1OCc1ccc2ccccc2n1 [Embodiment 138]
35.4%	COc1cc2nnc(-c3cc(C)on3)n2nc1OCc1ccc(C(=O)NCC(F)(F)F)cn1 [Embodiment 11, 6-(((7-Methoxy-3-(5-methylisoxazol-3-yl)-[1,2,4]triazolo[4,3-b]pyridazin-6-yl)oxy)methyl)-N-(2,2,2-trifluoroethyl)nicotinamide]
47.4%	COc1cc2nnc(-c3cc(C)on3)n2nc1OCc1ccc2c(ccn2C2COC2)n1 [Embodiment 250]
35.7%	COc1ccc(C(F)(F)F)nc1COc1nn2c(-c3cc(C)on3)nnc2cc1OC [Embodiment 62]
50.4%	COCCNc1ccc(COc2nn3c(-c4cc(C)on4)nnc3cc2OC)nn1 [Embodiment 159]
48.2%	COc1cc2nnc(-c3cc(C)on3)n2nc1OCc1cccc2cnnn12 [Embodiment 104]
41.6%	CCn1cccc(COc2nn3c(-c4cc(C)on4)nnc3cc2OC)c1=O [Embodiment 76]
32.9%	COc1cc2nnc(-c3cc(C)on3)n2nc1OCc1ccc2ncn(C)c2n1 [Embodiment 101]
37.1%	COCCOc1ccnc(COc2nn3c(-c4cc(C)on4)nnc3cc2OC)c1 [Embodiment 10]
66.9%	COc1cc2nnc(-c3cc(C)on3)n2nc1OCc1cc(C#N)ccn1 [Embodiment 29]
50.8%	COc1cc2nnc(-c3cc(C)on3)n2nc1OCc1ccc2c(n1)CCN(CC(F)(F)CO)C2 [Embodiment 196]
50.1%	CCc1cn2nc(COc3nn4c(-c5cc(C)on5)nnc4cc3OC)ccc2n1 [Embodiment 176]
45.4%	COc1cc2nnc(-c3cc(C)on3)n2nc1OCc1ccc2c(n1)CN(C1COC1)C2 [Embodiment 255]
48.8%	COc1cc2nnc(-c3cc(C)on3)n2nc1OCc1ccc2c(n1)CCN(S(C)(=O)=O)C2 [Embodiment 209]
49%	COCCCn1ccc2nc(COc3nn4c(-c5cc(C)on5)nnc4cc3OC)ccc2c1=O [Embodiment 139]
37.1%	COc1cc2nnc(-c3cc(C)on3)n2nc1OCc1cccc(N(C)C)n1 [Embodiment 3]
48.3%	COc1cc2nnc(-c3cc(C)on3)n2nc1OCc1ccc2c(n1)CCN(C(=O)NC1CC(F)(F)C1)C2 [Embodiment 201, N-(3,3-Difluorocyclobutyl)-2-(((7-methoxy-3-(5-methylisoxazol-3-yl)-[1,2,4]triazolo[4,3-b]pyridazin-6-yl)oxy)methyl)-7,8-dihydro-1,6-naphthyridine-6(5H)-carboxamide]
48%	COc1cc2nnc(-c3cc(C)on3)n2nc1OCc1ccc2c(cnn2C2CCOCC2)n1 [Embodiment 239]
40%	COc1cc2nnc(-c3cc(C)on3)n2nc1OCc1ccn2nccc2n1 [Embodiment 64]
50.1%	COCCCOc1nnc(COc2nn3c(-c4cc(C)on4)nnc3cc2OC)cc1C [Embodiment 155]
38.8%	COc1cc2nnc(-c3cc(C)on3)n2nc1OCc1ccc(C2CCNC2)cn1 (stereo not shown) [Embodiment 96]
48.1%	COc1cc2nnc(-c3cc(C)on3)n2nc1OCc1ccc(C2(F)CCCNC2)cn1 (stereo not shown) [Embodiment 95]
29%	COc1cc2nnc(-c3cc(C)on3)n2nc1OCc1ccc(C2=CCCCC2)cn1 [Embodiment 13]
54.7%	COc1cc2nnc(-c3cc(C)on3)n2nc1OCc1ccc2c(n1)c(C)nn2C1COC1 [Embodiment 242]
34.1%	COc1cc2nnc(-c3cc(C)on3)n2nc1OCc1ccc(OC(C)C)cn1 [Embodiment 25]
42.1%	COc1ccc(COc2nn3c(-c4cc(C)on4)nnc3cc2OC)nc1 [Embodiment 37]
45.8%	COc1cc2nnc(-c3cc(C)on3)n2nc1OCc1ccc2c(n1)CCN(C1CC(C#N)C1)C2 (stereo not shown) [Embodiment 195]
